US20090042993A1, “IDENTIFICATION OF NOVEL POST-TRANSLATIONAL PROTEIN MODIFICATIONS” (priority 2007, published 2009)
Peptide text beside a SMILES is read from it. * marks the point of attachment. Cbz = O=C(OCc1ccccc1)*

What was measured:
[1] = biological target: T1, ER membrane acetyl-CoA transport activity (Cricetulus griseus, UniProt G3H231); test: Acetyl-CoA transport assay into intact ER vesicles; type: biochemical, Chinese Hamster; conditions: ER vesicles, increasing concentrations of Coenzyme A
T1 sequence (G3H231 1-550): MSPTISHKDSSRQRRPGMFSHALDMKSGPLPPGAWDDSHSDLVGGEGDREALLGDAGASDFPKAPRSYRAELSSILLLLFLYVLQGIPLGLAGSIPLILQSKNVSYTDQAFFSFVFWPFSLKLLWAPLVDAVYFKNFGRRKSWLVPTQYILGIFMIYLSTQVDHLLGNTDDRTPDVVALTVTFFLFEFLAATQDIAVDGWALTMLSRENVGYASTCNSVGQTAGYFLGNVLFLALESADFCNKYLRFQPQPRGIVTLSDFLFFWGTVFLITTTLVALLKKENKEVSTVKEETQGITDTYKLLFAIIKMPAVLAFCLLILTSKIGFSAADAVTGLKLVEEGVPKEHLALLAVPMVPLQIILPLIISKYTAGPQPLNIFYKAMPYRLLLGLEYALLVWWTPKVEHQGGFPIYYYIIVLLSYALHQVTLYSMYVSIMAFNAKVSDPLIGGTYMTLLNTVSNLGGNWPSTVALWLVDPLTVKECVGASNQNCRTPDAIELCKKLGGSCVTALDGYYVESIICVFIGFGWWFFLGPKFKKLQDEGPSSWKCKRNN

[2] = system: BACE1; test: BACE1 steady-state levels by Western blot in stably transfected CHO cells; type: cell-based, human; conditions: CHO cells, proteasome inhibitor for 10 hours (MG-132 5 μM, lactacystin 10 μM)
Experimental: Chinese Hamster Ovary (CHO) cells were grown in DMEM (Gibco BRL—Invitrogen, Carlsbad, Calif.) supplemented with 10% fetal bovine serum (FBS) and penicillin/streptomycin (Mediatech, Inc., Herndon, Va.) as described before (Puglielli et al., 2001, Nat. Cell Biol. 3: 905-912; Puglielli et al., 2003, J. Biol. Chem. 278: 19777-19783; Costantini et al., 2005, Biochem. J. 391: 59-67; Costantini et al., 2006, EMBO J. 25: 1997-2006). Cells were maintained in a humidified atmosphere with 5% CO2. For ceramide treatment, C6-ceramide (also simply called ceramide herein) was administered at the final concentration of 10 μM; treatment was started when cells were ˜30% confluent and carried out for 4 days, unless specified otherwise. Treatment with proteasome inhibitors MG-132 (5 μM) and lactacystin (10 μM) was done for 10 hours, as described earlier (Qing et al., 2004, FASEB J. 18: 1571-1573).
Cell lysates were prepared in GTIP buffer (100 mM Tris-pH 7.6, 20 mM EDTA, 1.5 M NaCl) with 1% Triton X-100 (Roche, Basel, Switzerland), 0.25% NP40 (Roche), and a protease inhibitor cocktail (Roche) as described before (Puglielli et al., 2003, J. Biol. Chem. 278: 19777-19783; Costantini et al., 2005, Biochem. J. 391: 59-67). Briefly, cell monolayers were washed twice in PBS, scraped, transferred into eppendorf tubes, and centrifuged at 8,000 rpm for 5 min in a table-top centrifuge. Cell pellets were then lysed in ice for 30 min with the buffer indicated above, and centrifuged again at 14,000 rpm prior to the recollection of the protein extracts. Proteins were quantitated with the BCA Protein Assay (Pierce, Rockford, Ill.) following the manufacturer's instructions.
For the immunoprecipitation of BACE1, cell lysates were pre-cleared with BioMag Protein A (Polysciences, Inc., Warrington, Pa.); beads were used at the concentration of 15 μl of the slurry per sample and separated with a magnetic holder. BACE1 was then immunoprecipitated with anti-BACE1 antibodies overnight and recovered with BioMag Protein A as above. The immunoprecipitate-bead complexes were washed 3 times in PBS and boiled for 10 min in SDS sample buffer (Invitrogen) with β-mercaptoethanol. Beads were then separated and the samples were analyzed by reducing SDS-PAGE.
Western blotting was performed on 10% Bis-Tris, 4-12% Bis-Tris, or 7% Tris-Acetate SDS-PAGE systems (NuPAGE; Invitrogen) as described (Puglielli et al., 2001, Nat. Cell Biol. 3: 905-912; Puglielli et al., 2003, J. Biol. Chem. 278: 19777-19783; Costantini et al., 2005, Biochem. J. 391: 59-67; Costantini et al., 2006, EMBO J. 25: 1997-2006). The following antibodies were used: anti-BACE1 N-terminal (monoclonal antibody; R&D Systems, Minneapolis, Minn.); anti-BACE1 C-terminal (polyclonal antibody; Abcam, Cambridge, Mass.); anti-pro-BACE1 (polyclonal; Abcam); anti-acetylated lysine (monoclonal; Abcam); anti-calreticulin (ER marker, polyclonal; Abcam); anti-58 K Golgi/formiminotransferase cyclodeaminase (Golgi marker, polyclonal; Abcam); anti-syntaxin (Golgi marker, monoclonal; Abcam); anti-EEA1 (endosomes, monoclonal; BD Transduction Laboratories, Lexington, Ky.); anti-actin (polyclonal; Cell Signaling, Danvers, Mass.). Secondary antibodies (Amersham) were used at a 1:6000 dilution. Binding was detected by chemiluminescence (LumiGLO kit; KPL, Gaithersburg, Md.). Only a representative blot of at least three different experiments is shown throughout the paper.
FIG. 1 illustrates how BACE1 is transiently acetylated in the lumen of the ER. For this experiment, CHO cells expressing human BACE1 were treated with C6-ceramide (also simply called ceramide herein) for different periods of time. BACE1 was then immunoprecipitated and analyzed by Western blotting. FIG. 1(A): CHO cells stably expressing BACE1 were treated with ceramide for the indicated time. BACE1 was immunoprecipitated from total cell lysates, separated on a 7% Tris-Acetate NuPAGE system, and then analyzed by Western blot using either anti-BACE1 or anti-acetylated lysine antibodies. […]

acetyl-CoA transport across the ER membrane [1]	Structure (SMILES)	steady-state levels of BACE1Ala [2]	steady-state levels of BACE1WT [2]
inhibited	CC(C)(COP(=O)(O)OP(=O)(O)OC[C@H]1O[C@@H](n2cnc3c(N)ncnc32)[C@H](O)[C@@H]1OP(=O)(O)O)[C@@H](O)C(=O)NCCC(=O)NCCS [Coenzyme A]		
	CC(=O)N[C@@H](CSC(=O)[C@]1([C@@H](O)C(C)C)NC(=O)[C@H](C)[C@@H]1O)C(=O)O [lactacystin]	not those of BACE1Ala	successfully increased
	CC(C)C[C@@H](C=O)NC(=O)[C@H](CC(C)C)NC(=O)[C@H](CC(C)C)NC(=O)OCc1ccccc1 [MG-132] (Cbz-Leu-Leu-Leu-aldehyde)	not those of BACE1Ala	successfully increased
